These results are taken from publication PMC11714206, “Massively Parallel Screening of Toll/Interleukin‐1 Receptor (TIR)‐Derived Peptides Reveals Multiple Toll‐Like Receptors (TLRs)‐Targeting Immunomodulatory Peptides” (Advanced Science, 2024).

In this assay the target is T1, MAL^TIR (Homo sapiens, UniProt P58753).
T1 construct: MAL (residues 79–221); 6xHis; made in house; host or cells: E. coli BL21 (DE3)
The assay is described as follows: T‐Surf phage library (P8 and P3) selection against MAL^TIR, four rounds, NGS read counts. In kind it is binding. The note with it: for P3_MAL Rank (after) / P3_MAL Rank (before): P3 library; for P8_MAL Rank (after) / P8_MAL Rank (before): P8 library; for Population: 4th round of selection against MAL TIR, share of NGS reads. Put shortly: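 Library of 190 946 TIR‐derived peptides on P8 or P3 was panned on immobilized TIR domain coated at 5 µg mL^−1, BSA‐blocked, 1 h binding at RT, PBS/0.5% Tween‐20 washes, HCl elution, TG1 amplification. Fourth‐round pools were PCR‐barcoded, sequenced (100 bp paired‐end, Phred ≥30), and peptides ranked by read counts.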

Where [1] appears, read: 4R selection against MAL, rank after grouping.
Where [2] appears, read: 4R selection against MAL, rank before grouping.
Setting [3] is: selection against MAL, rank after grouping.
Setting [4] is: selection against MAL, rank before grouping.
Setting [5] is: P3_MAL: rank by count after grouping.
Where [6] appears, read: P3_MAL: rank by count before grouping.
Setting [7] is: selection against MAL TIR, rank by count after grouping.
The mark [8] stands for this setting: selection against MAL TIR, rank by count before grouping.
Setting [9] is: selection against MAL, rank by count after grouping.
Setting [10] is: selection against MAL, rank by count before grouping.
The mark [11] stands for this setting: P8_MAL: rank by count after grouping.
The mark [12] stands for this setting: P8_MAL: rank by count before grouping.

T1 sequence (P58753 79-221): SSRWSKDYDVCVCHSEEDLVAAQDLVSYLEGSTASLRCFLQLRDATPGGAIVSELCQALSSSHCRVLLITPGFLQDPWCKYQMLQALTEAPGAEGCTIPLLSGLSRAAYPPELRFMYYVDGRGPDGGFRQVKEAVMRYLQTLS

Consider RGFLYQAFAREGFKIFM, for which the “P3_MAL Rank (after)” value under setting [1] is 581. Under setting [2], the “P3_MAL Rank (before)” value was determined as 2353.

RNFMSHLYQGLKNRGIFTF: the “P3_MAL Rank (after)” value under setting [3] is given as 502. Moreover, the “P3_MAL Rank (before)” value under setting [4] worked out at 2612.

As for NQWRNSLTAAANLRGW, the “Rank (after)” value under setting [5] is on record as 173. For the same sequence, the “Rank (before)” value under setting [6] is given as 3340.

For SSFREGLLRLLELRKK, under setting [7], the “P3_MAL Rank (after)” value amounted to 265. Also, the “P3_MAL Rank (before)” value under setting [8] was 3138.

Regarding SFFDRLVSVILRDTNV, the “P8_MAL Rank (after)” value under setting [9] is given as 701. For the same sequence, the “P8_MAL Rank (before)” value under setting [10] turned out to be 1441.

With WFFDGLVSLFLGDTKL, under setting [3], the “P8_MAL Rank (after)” value is 537. Further, the “P8_MAL Rank (before)” value under setting [4] worked out at 1112.

As to AFLYTFLKNLTHTPTF, the “Rank (after)” value under setting [11] was 410. The “Rank (before)” value under setting [12] worked out at 1876.

For the sequence ESILNQRRPSSQSIAN, the “P3_MAL Rank (after)” value under setting [1] is 595. The “P3_MAL Rank (before)” value under setting [2] is on record as 2071.

Turning to WFYERLVSMVLRDTKV, under setting [11], the “Rank (after)” value amounted to 406. In addition, under setting [12], the “Rank (before)” value was determined as 1287.

Turning to KHCWDRLCYMVNDSSR, under setting [9], the “P3_MAL Rank (after)” value is on record as 721. The “P3_MAL Rank (before)” value under setting [10] amounted to 3468.

On to PEKDTVRVNVIIHNIV, for which the “Rank (after)” value under setting [5] was 470. In addition, the “Rank (before)” value under setting [6] is 2642.

As for PKLRTKVMNYLMRTKT, under setting [5], the “Rank (after)” value was 155. Under setting [6], the “Rank (before)” value came out at 2759.

Turning to WLYERLVSLSLRDTKV, the “Rank (after)” value under setting [11] turned out to be 168. The “Rank (before)” value under setting [12] stood at 1429.

Regarding TRPYLDWPQEPEMHEA, under setting [11], the “Rank (after)” value came out at 434. Besides, under setting [12], the “Rank (before)” value was 2652.

As for WFYERLVSLIMRATKV, the “Rank (after)” value under setting [11] is recorded as 117. Also, the “Rank (before)” value under setting [12] is 1222.

For WFYELLVSLLLRDTKV, the “P8_MAL Rank (after)” value under setting [7] is reported as 221. In addition, the “P8_MAL Rank (before)” value under setting [8] turned out to be 1149.

The sequence YAFTGHLHRYLVQRGA came in with a Population (P3_MAL pool: P3 T-Surf phage library) of 0.00338%.

Turning to PEKDHGGENAIIKNIE, under setting [3], the “P3_MAL Rank (after)” value is recorded as 556. Further, the “P3_MAL Rank (before)” value under setting [4] turned out to be 2639.

Turning to LCFCESLKQLLRSDGR, the “Rank (after)” value under setting [11] is on record as 110. Also, the “Rank (before)” value under setting [12] was 2161.

As for TRFCDRRCLTVAGSSA, the “Rank (after)” value under setting [5] is listed as 409. Further, the “Rank (before)” value under setting [6] was found to be 3235.

As to LFFWECLKKLLRRDGR, the “P8_MAL Rank (after)” value under setting [1] was 601. Further, the “P8_MAL Rank (before)” value under setting [2] is listed as 2071.

As for PFLVHQYNEALQADSH, under setting [9], the “P8_MAL Rank (after)” value is listed as 695. Besides, the “P8_MAL Rank (before)” value under setting [10] was determined as 2330.

On to LFFWESLKQPLRSEGR, for which the “P8_MAL Rank (after)” value under setting [1] was 608. Besides, the “P8_MAL Rank (before)” value under setting [2] was found to be 2112.

Consider EWIREQMSPALKERLP, for which, under setting [1], the “P3_MAL Rank (after)” value turned out to be 617. Further, under setting [2], the “P3_MAL Rank (before)” value is on record as 2023.

For the sequence YAFTRHLHRYLVHRGV, the “P3_MAL Rank (after)” value under setting [9] stood at 714. Under setting [10], the “P3_MAL Rank (before)” value is reported as 1466.

AFFWEQLKSVLGNPTM had a Population (P8_MAL pool: P8 T-Surf phage library) of 0.00371%.

Turning to TLLDHLCNELVQAGIH, the “P8_MAL Rank (after)” value under setting [9] was 721. The “P8_MAL Rank (before)” value under setting [10] is given as 2639.

With LFLWASLKQLLRSANC, the “P8_MAL Rank (after)” value under setting [1] was determined as 661. Under setting [2], the “P8_MAL Rank (before)” value was determined as 2142.

With AFLYTLLNNVLRNPTI, under setting [3], the “P8_MAL Rank (after)” value worked out at 556. Moreover, under setting [4], the “P8_MAL Rank (before)” value is 1888.

As to PNLRTKVLNYLMRTK, under setting [5], the “Rank (after)” value is recorded as 174. Besides, the “Rank (before)” value under setting [6] came to 955.

For the sequence PNLRTKVPNYPMLTKT, the “P3_MAL Rank (after)” value under setting [1] is reported as 640. Under setting [2], the “P3_MAL Rank (before)” value turned out to be 2680.

As for FMSHLYQGLKNRGI, under setting [5], the “Rank (after)” value is given as 165. The “Rank (before)” value under setting [6] is 499.

Regarding PNLRTKVLNYLILTKT, under setting [5], the “Rank (after)” value turned out to be 190. In addition, the “Rank (before)” value under setting [6] stood at 2747.

As to RGFLSHMRHPLQAKDH, under setting [7], the “P3_MAL Rank (after)” value stood at 281. Besides, the “P3_MAL Rank (before)” value under setting [8] is listed as 2398.

Take AFFWAQLKSVLGNPAR: under setting [1], the “P8_MAL Rank (after)” value was 605. Further, the “P8_MAL Rank (before)” value under setting [2] came out at 1630.

For the sequence TFLYTFLINLTHPTNY, the “P8_MAL Rank (after)” value under setting [1] is reported as 674. Further, the “P8_MAL Rank (before)” value under setting [2] was determined as 2533.
